Experimental data published in US20030226169A1, “DNA sequences encoding antifungal proteins” (priority 1995, published 2003).
Values after ≈ are worked out from the molar mass of the structure shown. Where two headings read alike, the source gives them in different places. Non-standard residues stand in square brackets, D forms with d. Residues, ends and D or L forms follow the SMILES beside them. Abu = CC[C@H](N)C(=O)O

Key:
[1] = system: Fusarium culmorum (IMI 180420); assay: Antifungal growth inhibition microplate assay (photospectrometry); assay type: cell-based; settings: for IC50 / MIC / F CULMORUM IC50 / F CULMORUM MIC / F CULMORUM IC: ½ PDB; for F CULMORUM IC: Table 6 / FIG. 8: Rs-AFP1-based 9-mer split peptides; for antifungal activity (in words): overlapping 13- to 20-mer MPS peptides Ile26-Phe49, Cys replaced by alpha-aminobutyric acid, FIGS. 10-13
Method: (§1) The following fungal strains were used: Alternaria brassicicola (MUCL 20297), Ascophyta pisi (MUCL 30164), Botrytis cinerea (MUCL 30158), Fusarium culmorum (IMI 180420) and Verticillium dahliae (MUCL 19210).
(§2) Fungi were grown on six cereal agar plates at room temperature and under white fluorescent light except for F culmorum and V dahliae which were grown in the dark. The duration of the spore harvest varied between 10 and 25 days depending on the strain. Spores were collected as follows. Five to ten ml of sterile milli-Q water was poured into each dish and the surface of the agar was rubbed with a sterile spatula to obtain a suspension containing mycelium and spores. This suspension was filtered through a sterile glasswool-plugged funnel and the filtrate containing the spores was collected in a sterile polypropylene centrifuge tube. The A brassicicola spores were suspended in sterile 0.1 Tween 20 (Merk, 822184) due to their hydrophobic nature. The spore suspensions were then washed twice by centrifugation at 2,400×g for 15 minutes and resuspended in a small volume of steril milli-Q water. The spore density was determined in a counting chamber and then adjusted to 4×10^7 spores per ml. Aliquots of the spore suspension were transferred to sterile microtubes and an equal volume of sterile 50% glycerol (Merck, 4091) was added to each tube so that a final spore suspension of 2×10^7 spores per ml in 25% glycerol was obtained. After careful mixing of the stock, the spore suspension was transferred in 100 μl aliquots to sterile microtubes and stored at −80° C.
(§3) Antifungal activity was measured by photospectrometry as described by Broekaert et al, (1990, FEMS Microbiol Lett, 69:55-60). Tests were performed by adding 20 μl of test solution and 80 μl of a fungal spore suspension (2×10^4 spores/ml) per well in a sterile flat-bottom 96-well microtiterplate. The spore suspension was prepared by diluting the stock spore suspension ([…] in 25% glycerol) 1:1000 in half-strength potato dextrose broth. A positive growth control consisting of eight wells containing 20 μl of sterile milli-Q water and 80 μl of the fungal spore suspension was included in each test. The microtiterplates were incubated (with the lid on) in an aerated place at room temperature and under conditions of darkness for all test organisms.
(§4) After 30 minutes of incubation (when the spores are settled on the well bottom) the optical density was measured in a microplate reader (Bio Rad 3550-UV) at 595 nm. Incubation of the microtiterplates continued until the optical density of the control microculture was between 0.250 and 0.500, which took approximately 72 hours (96 hours for V dahliae). Percentage of growth inhibition (% GI) was estimated as 100 times the ratio of the corrected absorbance of the control microculture minus the corrected absorbance of the test microculture over the corrected absorbance of the control microculture at 595 nm. The corrected absorbance values equal the absorbance at 595 nm of the culture measured after 72 or 96 hours minus the absorbance at 595 nm measured after 30 minutes.
(§5) % GI=[(Acontrol−Atest/Acontrol]×100
(§6) where Acontrol=(A72/96h−A30min)control
(§7) The IC50 value is defined as the concentration that gives a 50% growth inhibition after 72 or 96 hours of incubation. The minimum inhibitory concentration (MIC) corresponds to the minimum concentration that gives 100% growth inhibition after 72 or 96 hours incubation.

[2] = system: Ascophyta pisi (MUCL 30164); assay type: cell-based; settings: for A PISI IC: the source numbers peptides by N-terminal amino acid
Method: as §1, §2, §3, §4, §5, §6, §7

[3] = Table 4 / FIG. 6: Rs-AFP2-based 12-mer split peptides, the source numbers peptides by N-terminal amino acid
[4] = Table 4: Rs-AFP2-based 12-mer split peptides, triplicate
[5] = Table 7: Rs-AFP1-based 12-mer split peptides, ½ PDB
[6] = Table 14: 18-, 19-, 20-mer peptides with C-terminal Phe49, duplo
[7] = Table 3 / FIG. 6: Rs-AFP2-based 9-mer split peptides, the source numbers peptides by N-terminal amino acid
[8] = Table 3: Rs-AFP2-based 9-mer split peptides, duplicate
[9] = the source numbers peptides by N-terminal amino acid
[10] = Table 6: Rs-AFP1-based 9-mer split peptides
[11] = Table 6: Rs-AFP1-based 9-mer split peptides, ½ PDB

Row | Compound | IC50 [1, 3] | MIC [1, 4] | IC50 [1, 7] | MIC [1, 8] | further results
1 | 114 (CIRLEKARHGSC; listed as Raphanus sativus) [compound 114] | 74 µg/mL | 100 µg/mL | – | – | F CULMORUM IC50 ([1]; Table 7 / FIG. 8: Rs-AFP1-based 12-mer split peptides, the source numbers peptides by N-terminal amino acid): 328 µg/mL; F CULMORUM MIC ([1]; Table 7: Rs-AFP1-based 12-mer split peptides): 400 µg/mL; A PISI IC50 [2, 5]: 318 µg/mL; A PISI MIC [2, 5]: >400 µg/mL
2 | CC[C@H](NC(=O)[C@H](CO)NC(=O)CNC(=O)[C@H](Cc1c[nH]cn1)NC(=O)[C@H](CCCNC(=N)N)NC(=O)[C@H](C)NC(=O)[C@H](CCCCN)NC(C)=O)C(=O)N[C@@H](CC(N)=O)C(=O)N[C@@H](Cc1ccc(O)cc1)C(=O)N[C@H](C(=O)N[C@@H](Cc1ccccc1)C(=O)N1CCC[C@H]1C(=O)N[C@@H](C)C(=O)N[C@@H](Cc1c[nH]cn1)C(=O)N[C@@H](CCCCN)C(=O)N[C@@H](CC)C(=O)N[C@H](C(=O)N[C@@H](CC)C(=O)N[C@@H](Cc1ccc(O)cc1)C(=O)N[C@@H](Cc1ccccc1)C(N)=O)[C@@H](C)CC)C(C)C [Peptide Q06, KARHGSBNYVFPAHKBIBYF] (Ac-KARHGS[Abu]NYVFPAHK[Abu]I[Abu]YF-NH2) | – | – | – | – | IC50 SMF + pH5 [1, 6]: 31 ± 17 μg/ml; IC50 SMF + pH7 [1, 6]: 62 ± 8 μg/ml; IC50 ½ PDB ([1]; Table 14: 18-, 19-, 20-mer peptides with C-terminal Phe49, peptides single experiment): 4.8 µg/mL (≈ 2.06 µM)
3 | CC[C@H](C)[C@H](NC(=O)[C@H](CS)NC(=O)[C@H](CCCCN)NC(C)=O)C(=O)N[C@@H](CS)C(=O)N[C@@H](Cc1ccc(O)cc1)C(=O)N[C@@H](Cc1ccccc1)C(N)=O [compound 44] (Ac-KCICYF-NH2) | – | – | – | – | F CULMORUM IC50 ([1]; Table 5 / FIG. 8: Rs-AFP1-based 6-mer split peptides): 376 µg/mL; F CULMORUM MIC ([1]; Table 5: Rs-AFP1-based 6-mer split peptides): >400 tg/ml; A PISI IC50 [2]: 400 µg/mL; A PISI MIC [2]: >400 µg/mL
4 | CC[C@H](C)[C@H](NC(=O)[C@H](CS)NC(=O)[C@H](CCC(N)=O)NC(=O)[C@H](CC(N)=O)NC(=O)[C@H](CCCCN)NC(=O)[C@H](CS)NC(=O)[C@H](C)NC(=O)[C@H](CC(N)=O)NC(C)=O)C(=O)N[C@@H](CCCNC(=N)N)C(N)=O [compound 65] (Ac-NACKNQCIR-NH2) | – | – | 144 µg/mL (≈ 132 µM) | 200 µg/mL (≈ 183 µM) | –
5 | CC[C@H](C)[C@H](NC(=O)[C@H](CS)NC(=O)[C@H](CCC(N)=O)NC(=O)[C@H](CC(N)=O)NC(=O)[C@H](CCCCN)NC(=O)[C@H](CS)NC(=O)[C@H](C)NC(C)=O)C(=O)N[C@@H](CCCNC(=N)N)C(=O)N[C@@H](CC(C)C)C(N)=O [compound 66] (Ac-ACKNQCIRL-NH2) | – | – | 105 µg/mL (≈ 96.4 µM) | 150 µg/mL (≈ 138 µM) | –
6 | CC[C@H](C)[C@H](NC(=O)[C@H](CS)NC(=O)[C@H](CCCCN)NC(=O)[C@H](Cc1c[nH]cn1)NC(=O)[C@H](C)NC(=O)[C@@H]1CCCN1C(=O)[C@H](Cc1ccccc1)NC(=O)[C@@H](NC(C)=O)C(C)C)C(=O)N[C@@H](CS)C(N)=O [compound 85] (Ac-VFPAHKCIC-NH2) | – | – | 121 µg/mL (≈ 114 µM) | 200 µg/mL (≈ 189 µM) | F CULMORUM IC [1, 9]: 121 µg/mL; F CULMORUM MIC [1, 10]: 200 µg/mL; A PISI MIC [2, 11]: 400 µg/mL; A PISI IC [2, 11]: 184 µg/mL
7 | CC[C@H](C)[C@H](NC(=O)[C@H](CS)NC(=O)[C@H](CCCCN)NC(=O)[C@H](Cc1c[nH]cn1)NC(=O)[C@H](C)NC(=O)[C@@H]1CCCN1C(=O)[C@H](Cc1ccccc1)NC(C)=O)C(=O)N[C@@H](CS)C(=O)N[C@@H](Cc1ccc(O)cc1)C(N)=O [compound 86] (Ac-FPAHKCICY-NH2) | – | – | 144 µg/mL (≈ 128 µM) | 400 µg/mL (≈ 356 µM) | F CULMORUM IC [1, 9]: 196 µg/mL; F CULMORUM MIC [1, 10]: 250 µg/mL; A PISI MIC [2, 11]: 200 µg/mL; A PISI IC [2, 11]: 80 µg/mL
8 | CC[C@H](C)[C@H](NC(=O)[C@H](CS)NC(=O)[C@H](CCCCN)NC(=O)[C@H](Cc1c[nH]cn1)NC(=O)[C@H](C)NC(=O)[C@@H]1CCCN1C(C)=O)C(=O)N[C@@H](CS)C(=O)N[C@@H](Cc1ccc(O)cc1)C(=O)N[C@@H](Cc1ccccc1)C(N)=O [compound 87] (Ac-PAHKCICYF-NH2) | – | – | 39 µg/mL (≈ 34.7 µM) | 50 µg/mL (≈ 44.5 µM) | F CULMORUM IC [1, 9]: 28 µg/mL; F CULMORUM MIC [1, 10]: 37.5 µg/mL; A PISI MIC [2, 11]: 50 µg/mL; A PISI IC [2, 11]: 31 µg/mL
9 | CC[C@H](C)[C@H](NC(=O)[C@H](CS)NC(=O)[C@H](CCC(N)=O)NC(=O)[C@H](CC(N)=O)NC(=O)[C@H](CCCCN)NC(=O)[C@H](CS)NC(=O)[C@H](C)NC(=O)[C@H](CC(N)=O)NC(=O)[C@H](CC(N)=O)NC(=O)[C@H](CC(N)=O)NC(C)=O)C(=O)N[C@@H](CCCNC(=N)N)C(=O)N[C@@H](CC(C)C)C(N)=O [compound 106] (Ac-NNNACKNQCIRL-NH2) | 116 µg/mL (≈ 81 µM) | 150 µg/mL (≈ 105 µM) | – | – | –
10 | CC[C@H](C)[C@H](NC(=O)[C@H](CS)NC(=O)[C@H](CCC(N)=O)NC(=O)[C@H](CC(N)=O)NC(=O)[C@H](CCCCN)NC(=O)[C@H](CS)NC(=O)[C@H](C)NC(=O)[C@H](CC(N)=O)NC(C)=O)C(=O)N[C@@H](CCCNC(=N)N)C(=O)N[C@@H](CC(C)C)C(=O)N[C@@H](CCC(=O)O)C(=O)N[C@@H](CCCCN)C(N)=O [compound 108] (Ac-NACKNQCIRLEK-NH2) | 150 µg/mL (≈ 103 µM) | 200 µg/mL (≈ 137 µM) | – | – | –
11 | CC[C@H](C)[C@H](NC(=O)[C@H](CS)NC(=O)[C@H](CCC(N)=O)NC(=O)[C@H](CC(N)=O)NC(=O)[C@H](CCCCN)NC(=O)[C@H](CS)NC(=O)[C@H](C)NC(C)=O)C(=O)N[C@@H](CCCNC(=N)N)C(=O)N[C@@H](CC(C)C)C(=O)N[C@@H](CCC(=O)O)C(=O)N[C@@H](CCCCN)C(=O)N[C@@H](C)C(N)=O [compound 109] (Ac-ACKNQCIRLEKA-NH2) | 106 µg/mL (≈ 74.8 µM) | 150 µg/mL (≈ 106 µM) | – | – | –
12 | Ac-CIRLEKARH-NH2 [compound 71] | – | – | 66 µg/mL | 100 µg/mL | –
13 | Ac-FPAHKC-NH2 [compound 40] | – | – | – | – | MIC ([1]; Table 2: Rs-AFP2-based 6-mer split peptides, duplicate): 100 µg/mL
14 | Ac-IRLEKARHGSCN-NH2 [compound 115] | 203 µg/mL | 300 µg/mL | – | – | –
15 | Ac-KNQCIRLEKARH-NH2 [compound 111] | 126 µg/mL | 200 µg/mL | – | – | –
16 | Ac-LEKARHGSC-NH2 [compound 74] | – | – | 270 µg/mL | 400 µg/mL | F CULMORUM IC [1, 9]: 370 µg/mL; F CULMORUM MIC [1, 10]: >400 µg/mL
17 | Ac-NQCIRLEKARHG-NH2 [compound 112] | 149 µg/mL | 200 µg/mL | – | – | –
18 | Ac-NYVFPAHKC-NH2 [compound 83] | – | – | 175 µg/mL | 250 µg/mL | F CULMORUM IC [1, 9]: 330 µg/mL; F CULMORUM MIC [1, 10]: 400 µg/mL
19 | Ac-QCIRLEKAR-NH2 [compound 70] | – | – | 78 µg/mL | 100 µg/mL | –
20 | Ac-YVFPAHKCI-NH2 [compound 84] | – | – | 175 µg/mL | 400 µg/mL | F CULMORUM IC [1, 9]: 145 µg/mL; F CULMORUM MIC [1, 10]: 250 µg/mL
21 | HGSBNYVFPAHKBIBY (Ac-HGS[Abu]NYVFPAHK[Abu]I[Abu]Y-NH2; listed as Raphanus sativus) [SEQ ID NO: 99] | – | – | – | – | antifungal activity (in words) [1]: nonactive
22 | RHGSBNYVFPAHKBIBY (Ac-RHGS[Abu]NYVFPAHK[Abu]I[Abu]Y-NH2; listed as Raphanus sativus) [SEQ ID NO: 107] | – | – | – | – | antifungal activity (in words) [1]: very active
